Columns and labels:
BACE1 = BACE1 (Homo sapiens (Human), UniProt P56817); test: Cellular Aβ-lowering assay (Aβ40 ELISA in HEK293 cells expressing human APP695); format: cell-based; settings: HEK293 cells stably transfected with human APP wt (APP695), Aβ40 in supernatant after 18-20 hrs
Protocol: Cellular Aβ-Lowering Assay:
Human HEK293 cells which are stably transfected with a vector expressing a cDNA of the human APP wt gene (APP695) were used to assess the potency of the compounds in a cellular assay. The cells were seeded in 96-well microtiter plates in cell culture medium (Iscove, plus 10% (v/v) fetal bovine serum, glutamine, penicillin/streptomycin) to about 80% confluence and the compounds were added at a 10× concentration in 1/10 volume of medium without FCS containing 8% DMSO (final concentration of DMSO was kept at 0.8% v/v). After 18-20 hrs incubation at 37° C. and 5% CO2 in a humidified incubator the culture supernatant was harvested for the determination of Aβ40 concentrations. 96 well ELISA plates (e.g., Nunc MaxiSorb) were coated with monoclonal antibody which specifically recognize the C-terminal end of Aβ40 (Brockhaus et al., NeuroReport 9, 1481-1486; 1998). After blocking of non-specific binding sites with e.g. 1% BSA and washing, the culture supernatants were added in suitable dilutions together with a horseradish peroxidase-coupled Aβ detection antibody (e.g., antibody 4G8, Senetek, Maryland Heights, Mo.) and incubated for 5 to 7 hrs. Subsequently the wells of the microtiter plate were washed extensively with Tris-buffered saline containing 0.05% Tween 20 and the assay was developed with tetramethylbenzidine/H2O2 in citric acid buffer. After stopping the reaction with one volume 1NH2SO4 the reaction was measured in an ELISA reader at 450 nm wavelength. The concentrations of Aβ in the culture supernatants were calculated from a standard curve obtained with known amounts of pure Aβ peptide.

BACE2 = BACE2 (Homo sapiens (Human), UniProt Q9Y5Z0); test: Immunofluorescence Resonance Energy Transfer (FRET) assay for BACE2 inhibition; format: biochemical; settings: TMEM27-based peptide substrate 5 μM, pH 4.5
BACE2, sequence (Q9Y5Z0 63-473): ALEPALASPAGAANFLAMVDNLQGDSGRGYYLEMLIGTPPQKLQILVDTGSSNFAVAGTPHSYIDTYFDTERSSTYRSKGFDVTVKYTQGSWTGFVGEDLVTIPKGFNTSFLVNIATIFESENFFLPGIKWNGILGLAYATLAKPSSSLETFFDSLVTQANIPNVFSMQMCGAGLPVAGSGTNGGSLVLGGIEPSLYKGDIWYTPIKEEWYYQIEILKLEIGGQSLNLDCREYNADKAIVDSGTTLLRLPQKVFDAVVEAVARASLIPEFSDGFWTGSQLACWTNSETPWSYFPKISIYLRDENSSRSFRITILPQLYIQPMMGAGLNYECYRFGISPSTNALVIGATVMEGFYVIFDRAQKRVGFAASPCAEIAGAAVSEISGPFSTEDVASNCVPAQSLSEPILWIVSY
Protocol: Immunofluorescence Resonance Energy Transfer (FRET) Assay for BACE2 Inhibition:
BACE2 enzyme ectodomain (derived from plasmid “pET17b-T7-hu proBACE2”) was prepared as described in Ostermann et al., “Crystal Structure of Human BACE2 in Complex with a Hydroxyethylamine Transition-state Inhibitor”, Journal of Molecular Biology 2006, 355, 249-261. The pro-enzyme was stored at 4° C. at a concentration of 70 μg/ml.
The FRET assay was performed essentially as described in Grüninger-Leitch et al., Journal of Biological Chemistry (2002) 277(7) 4687-93 (“Substrate and inhibitor profile of BACE (beta-secretase) and comparison with other mammalian aspartic proteases”). In summary, a peptide is designed that is cleaved by the protease. The peptide is labelled with dabcyl at the N terminus and Lucifer Yellow at the C-terminus, such that for an intact peptide the Lucifer Yellow fluorescence is quenched by the dabcyl. When the peptide is cut by BACE2, the quenching is removed and a fluorescent signal is generated.
The assay was performed as described in Grueninger et al. 2002 at pH 4.5 using a substrate concentration of 5 μM. A FRET peptide based on the TMEM27 sequence was devised. dabcyl-[…]-LucY (SEQ ID NO: 1).
The assay readout is the initial rate of change of fluorescence intensity giving a relative measure of BACE2 activity. Small values correspond to high inhibition and larger values to low inhibition. […] IC50 values were determined using these assay values generated for a range of inhibitor concentrations and the curve fitting software XLfit (IDBS) using the Sigmoidal Dose-Response Model.

BACE1, sequence (P56817 46-501): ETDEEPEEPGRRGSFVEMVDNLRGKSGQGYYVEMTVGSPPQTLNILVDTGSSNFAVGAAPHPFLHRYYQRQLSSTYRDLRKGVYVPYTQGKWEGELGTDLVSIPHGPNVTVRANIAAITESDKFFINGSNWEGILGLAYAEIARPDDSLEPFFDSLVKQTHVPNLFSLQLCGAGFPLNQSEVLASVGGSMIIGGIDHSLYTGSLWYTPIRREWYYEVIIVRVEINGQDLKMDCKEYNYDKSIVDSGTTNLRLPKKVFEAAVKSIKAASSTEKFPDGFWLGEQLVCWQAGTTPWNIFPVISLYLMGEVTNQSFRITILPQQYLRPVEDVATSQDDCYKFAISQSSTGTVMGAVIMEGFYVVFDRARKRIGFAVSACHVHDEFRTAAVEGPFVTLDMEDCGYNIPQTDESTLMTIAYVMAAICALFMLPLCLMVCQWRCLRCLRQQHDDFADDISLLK

| IC50 (BACE1) | IC50 (BACE2) | SMILES |
| --- | --- | --- |
| 30 nM | 11 nM | C[C@]1(c2cc(NCc3nn(C(F)F)cc3Cl)ccc2F)N=C(N)COCC1(F)F [Example 6, (R)-5-{5-[(4-Chloro-1-difluoromethyl-1H-pyrazol-3-ylmethyl)-amino]-2-fluoro-phenyl}-6,6-difluoro-5-methyl-2,5,6,7-tetrahydro-[1,4]oxazepin-3-ylamine] |
| 90 nM | 30 nM | C[C@]1(c2cc(N[C@H]3CCc4cc(Cl)cnc43)ccc2F)N=C(N)COCC1(F)F [Example 8, [3-((R)-3-Amino-6,6-difluoro-5-methyl-2,5,6,7-tetrahydro-[1,4]oxazepin-5-yl)-4-fluoro-phenyl]-((S)-3-chloro-6,7-dihydro-5H-[1]pyrindin-7-yl)-amine] |
| 1900 nM | 170 nM | CC1(C)OCC(N)=N[C@](C)(c2cc(N[C@H]3CCc4cc(C#N)cnc43)c(F)cc2F)C1(F)F [Example 20, (S)-7-[5-((R)-3-Amino-6,6-difluoro-5,7,7-trimethyl-2,5,6,7-tetrahydro-[1,4]oxazepin-5-yl)-2,4-difluoro-phenylamino]-6,7-dihydro-5H-[1]pyrindine-3-carbonitrile] |
| 40 nM | 35 nM | C[C@]1(c2cc(NCc3nn(C(F)F)cc3Cl)ccc2F)N=C(N)COC[C@@H]1F [Example 2, (5R,6R)-5-{5-[(4-Chloro-1-difluoromethyl-1H-pyrazol-3-ylmethyl)-amino]-2-fluoro-phenyl}-6-fluoro-5-methyl-2,5,6,7-tetrahydro-[1,4]oxazepin-3-ylamine] |

— patent publication US8748418B2, “1,4-oxazepines as BACE1 and/or BACE2 inhibitors” (Hoffmann-La Roche Inc., priority 2011, dated 2014)
